Test results taken from the supplement of paper PMC3974653.
Counter-ions that a name gives are not always drawn.

tested on: MTT (mouse pheochromocytoma); experiment: IC50 of cell viability (ATP content); conditions: (24 or 48 h)
In short: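 Library compounds in DMSO (23 nl by pintool, 8 concentrations, final 0.5 nM to 46 µM) were applied for 24 or 48 hrs to MTT mouse pheochromocytoma cells that had been cultured overnight at 37°C, 5% CO2 in white 1536-well plates. Cell viability was measured by CellTiter-Glo ATP luminescence, read after 15 minutes, with positive-control wells set at 100% and DMSO wells at 0%. A four-parameter logistic fit of the normalised signals yielded the IC50.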

Row | IC50 of cell viability [µM] | SMILES
1 | > 46 | O=C(CCCN1CCC(C(=O)c2ccc(F)cc2)CC1)c1ccc(F)cc1 [Lenperone]
2 | > 46 | C=Cc1ccc(S(=O)(=O)[O-])cc1
3 | > 46 | CCCCCCCCCCCCCCC[C@H](O)[C@H](N)CO (racemic) [DL-erythro-Dihydrosphingosine]
4 | > 46 | CCCC(=O)[O-] [SODIUM BUTYRATE]
5 | > 46 | CCN1CCC[C@H]1CNC(=O)c1c(OC)ccc(Br)c1OC [REMOXIPRIDE]
6 | > 46 | CCCCC(CC)COC(=O)c1ccc(N(C)C)cc1 (stereo unspecified) [Padimate O]
7 | > 46 | C[N+](C)(C)CC[N+]1(C)Cc2c(Cl)c(Cl)c(Cl)c(Cl)c2C1 [CHLORISONDAMINE]
8 | > 46 | CCCCC(=O)O[C@@]1(CCC2C3CC\C4=C\C(=O)CCC4(C)C3C(O)CC12C)C(=O)CO (stereo partly specified) [HYDROCORTISONE VALERATE]
9 | > 46 | CN(C(=O)CO)c1c(I)c(C(=O)NCC(O)CO)c(I)c(C(=O)NCC(O)CO)c1I (stereo unspecified) [Iomeprol]
10 | > 46 | CCCC(=O)Nc1c(I)cc(I)c(C[C@H](CC)C(=O)O)c1I [TYROPANOATE SODIUM]
11 | > 46 | Cc1ccc(C(=O)c2cc(O)c(O)c([N+](=O)[O-])c2)cc1 [TOLCAPONE]
12 | > 46 | C[C@]12CCC(=O)C[C@@H]1CC[C@@H]1[C@@H]2CC[C@]2(C)C=CC[C@@H]12 [5A-ANDROSTA-16-ENE-3-ONE]
13 | > 46 | CCCc1cc(O)nc(S)n1 [6-Propyl-2-thiouracil]
14 | > 46 | COC(=O)[C@H]1[C@H]2C[C@H]3c4[nH]c5ccccc5c4CCN3C[C@H]2CC[C@@H]1O [RAUWOLSCINE]
15 | > 46 | CO/N=C(/C(=O)N[C@@H]1C(=O)N2C(C(=O)OC(C)OC(C)=O)=C(COC(N)=O)CS[C@H]12)c1ccco1 (stereo partly specified) [CEFUROXIME AXETIL]
16 | > 46 | COc1ccc2[nH]c([S+]([O-])Cc3ncc(C)c(OC)c3C)nc2n1 (stereo unspecified) [TENATOPRAZOLE]
17 | > 46 | CC1(C)O[C@H]2C[C@@H]3[C@H]4CC\C5=C\C(=O)CC[C@@]5(C)[C@]4(F)[C@@H](O)C[C@]3(C)[C@]2(O1)C(=O)CCl [Halcinonide]
18 | > 46 | CN(C)[C@@H]\1[C@@H]2C[C@H]3\C(=C(\O)[C@@]2(O)C(=O)\C(=C1O)C(=O)NCN4CCCC4)C(=O)C5=C(C=CC=C5O)[C@@]3(C)O [Rolitetracycline]
19 | > 46 | Nc1ccc([S+](=O)([O-])Nc2ncccn2)cc1 [Sulfadiazine]
20 | > 46 | CC(C)(C)c1ccc(CN2CCN([C@H](c3ccccc3)c3ccc(Cl)cc3)CC2)cc1 [Buclodin]
21 | > 46 | CCCCC [n-Pentane]
22 | > 46 | CNC1(C)C2CCC(C2)C1(C)C (stereo unspecified) [MECAMYLAMINE]
23 | > 46 | COC1=CC=C(C=C1O)C/2=C/C(=O)C3=C(O)C=C(O[C@H]4OC(COC5OC(C)C(O)C(O)[C@H]5O)C(O)C(O)C4O)C=C3O2 (stereo partly specified) [DIOSMIN]
24 | > 46 | Cc1cc2c(cc1[S+](N)(=O)[O-])[S+](=O)([O-])CCC2 [Meticrane]
25 | > 46 | CC(=O)Nc1c(I)c(C(=O)N[C@H]2[C@H](O)[C@H](O)[C@H](CO)O[C@@H]2O)c(I)c(N(C)C(C)=O)c1I [Metrizamide]

Row | IC50 of cell viability [µM] | SMILES
26 | > 46 | Oc1cc2cc(CCN3CCN(c4nsc5ccccc45)CC3)c(Cl)cc2[nH]1 [Zaprasidone]
27 | > 46 | O=C(CCC1CCN(Cc2ccccc2)CC1)c1ccc2c(c1)NCCCC2 [ZANAPEZIL FUMARATE]
28 | > 46 | Cc1ccc([S+](=O)([O-])NC(=O)NC2CCCCC2)cc1 [Glycyclamide]
29 | > 46 | CCN(CC)CCOc1ccc2c(c1)C(=O)c1cc(OCCN(CC)CC)ccc1-2 [TILORONE]
30 | > 46 | CN1C(=O)CN2CCc3ccccc3C2c2cc(Cl)ccc21 (stereo unspecified) [Clazolam]
31 | > 46 | O=[S+]1([O-])OC(c2ccc(O)cc2)(c2ccc(O)cc2)c2ccccc21 [Fenolipuna]
32 | > 46 | Cc1ccc(C(=O)C(C)CN2CCCCC2)cc1.Cl (stereo unspecified) [TOLPERISONE HYDROCHLORIDE]
33 | > 46 | CC\C1=C(/C)CN(C(=O)NCCC2=CC=C(C=C2)[S+]([O-])(=O)NC(=O)NC3CCC(C)CC3)C1=O (stereo unspecified) [Glimepiride]
34 | > 46 | O=[S+]([O-])(c1cccc2cnccc12)N1CCCNCC1 [Fasudil hydrochloride]
35 | > 46 | N[C@H](CCC(=O)O)C(=O)O [D-GLUTAMIC ACID]
36 | > 46 | CO/N=C(/C(=O)N[C@@H]1C(=O)N2C(C(=O)[O-])=CCS[C@H]12)c1csc(N)n1 [CEFTIZOXIME SODIUM]
37 | > 46 | CC(=O)N(CC(O)CO)c1c(I)c(C(=O)NCCO)c(I)c(C(=O)NCC(O)CO)c1I (stereo unspecified) [Ioxilan]
38 | > 46 | COc1ccc(-c2ccc3cc(C(=O)O)ccc3c2)cc1C12CC3CC(CC(C3)C1)C2 [Adapalene]
39 | > 46 | O=C(O)Cc1cc(I)c(Oc2ccc(O)c(I)c2)c(I)c1 [Tiratricol, 3,3',5-triiodothyroacetic acid]
40 | > 46 | COC(=O)C1C2CC3c4[nH]c5cc(OC)ccc5c4CCN3CC2CC(OC)C1OC (stereo unspecified) [METOSERPATE HYDROCHLORIDE]
41 | > 46 | NC(=O)N1C2=C(C=CC=C2)\C=C/C3=C1C=CC=C3 [Carbamazepine]
42 | > 46 | COC(=O)c1c(Cl)c(Cl)c(C(=O)OC)c(Cl)c1Cl [Chlorthal-dimethyl]
43 | > 46 | CO/N=C(\C(=O)N[C@@H]1C(=O)N2C(C(=O)[O-])=C(C[N+]3(C)CCCC3)CS[C@@H]12)c1csc(N)n1.Cl.O [Cefepime hydrochloride]
44 | > 46 | COc1cc(C)nc(-n2nc(C)cc2OC)n1 [Epirizole]
45 | > 46 | CCOC(=O)COc1ccc2c(=O)cc(-c3ccccc3)oc2c1 [Efloxate]
46 | > 46 | CC(C)(CO)[C@@H](O)C(=O)NCCC(=O)[O-] [D-Pantothenic acid hemicalcium salt]
47 | > 46 | CCCCCCCCCCCCCCCC(=O)O[C@@H]1CC(C)=C(\C=C/C(C)=C\C=C/C(C)=C\C=C\C=C(C)\C=C\C=C(C)\C=C\C2=C(C)C[C@@H](OC(=O)CCCCCCCCCCCCCCC)CC2(C)C)C(C)(C)C1 [PHYSALIEN with TLC]
48 | > 46 | NC(CSSCC(N)C(=O)O)C(=O)O (stereo unspecified) [CYSTINE]
49 | > 46 | Clc1ccccc1C(c1ccccc1)(c1ccccc1)n1ccnc1 [Clotrimazole]
50 | > 46 | CNc1c2c(nn1C)CCCC2 [TETRIDAMINUM]

Row | SMILES | IC50 of cell viability [µM]
51 | COc1ccccc1N1CCNCC1.Cl [1-(2-Methoxyphenyl)piperazine hydrochloride] | > 46
52 | CC(C)CC1C(=O)N2CCCC2C2(O)OC(NC(=O)C3CC4c5cccc6[nH]cc(c56)CC4N(C)C3)(C(C)C)C(=O)N12 (stereo unspecified) [Dihydroergocriptine] | > 46
53 | CC(=O)O[C@H]1C[C@H](O[C@H]2[C@@H](O)CC(O[C@H]3[C@@H](O)C[C@H](O[C@H]4CC[C@@]5(C)[C@H](CC[C@@H]6[C@@H]5CC[C@]5(C)[C@@H](C7=CC(=O)OC7)CC[C@]65O)C4)O[C@@H]3C)O[C@@H]2C)O[C@H](C)[C@H]1O[C@@H]1O[C@H](CO)[C@@H](O)[C@H](O)[C@H]1O (stereo partly specified) [LANATOSIDE A] | > 46
54 | CC[C@@H](CO)NC(=O)[C@H]\1CN(C)[C@@H]2CC3=C[N](C)C4=CC=CC(=C34)/C2=C1 [METHYSERGIDE] | > 46
55 | CN1[C@@H]2CC[C@@H]1CC(OC1c3ccccc3CCc3ccccc31)C2.O=C(O)CC(O)(CC(=O)O)C(=O)O (stereo partly specified) [Deptropine citrate] | > 46
56 | NCC(CC(=O)O)c1ccc(Cl)cc1 (stereo unspecified) [BACLOFEN] | > 46
57 | CCCCOC(=O)c1ccccc1C(=O)OCc1ccccc1 [Butyl benzyl phthalate] | > 46
58 | O[C@H]1\C=C/[C@H]2[C@H]3CC4=C5C(=C(O)C=C4)O[C@@H]1[C@@]25CCN3CC=C [NALORPHINE HYDROCHLORIDE] | > 46
59 | CO/N=C1\CN(c2nc3c(cc2F)c(=O)c(C(=O)O)cn3C2CC2)CC1CN.C[S+](=O)([O-])O (stereo unspecified) [GEMIFLOXACIN MESYLATE] | > 46
60 | [Cl][Pt][Cl] [cis-Diamineplatinum(II) dichloride] | > 46
61 | OC[C@@H]1O[C@@H](OC2=CC\3=C(OC(=O)\C=C3)C=C2O)[C@H](O)[C@H](O)[C@@H]1O [Esculin Hydrate] | > 46
62 | CCCCCCCCOC(=O)c1ccccc1C(=O)OCCCCCCCC [Dioctyl phthalate] | > 46
63 | CO/C=C(/C(=O)OC)c1ccccc1Oc1cc(Oc2ccccc2C#N)ncn1 [Azoxystrobin] | > 46
64 | CC(=O)OC1C([N+]2(C)CCCCC2)C[C@H]2C3CC[C@H]4C[C@H](OC(C)=O)C([N+]5(C)CCCCC5)CC4(C)[C@@H]3CCC12C (stereo partly specified) [PANCURONIUM] | > 46
65 | CCOC(=O)/C=C(C)/C=C/CC(C)CCCC(C)C (stereo unspecified) [S-HYDROPRENE] | > 46
66 | CC[C@@]1(c2ccc(N)cc2)CCC(=O)NC1=O [Glutethimide, para-amino] | > 46
